From ChEMBL document CHEMBL6109108, “A comprehensive review of fused imidazonaphthyridine derivatives: Synthetic approaches and biological applications” (Bioorg Med Chem, 2025) come the findings set out here.

In brackets after ≈: the same amount, converted by molar mass.

In one data set the test system is Rattus norvegicus. In words: Anti-inflammatory activity against carrageenan-induced paw edema in rat assessed as inhibition of paw edema at 50 mg/kg, po relative to control. The data set is classed as functional. The arrangement: scale not given: the % may be the effect or the level left.
The nature of data set [1]: Antiproliferative activity against mouse BaF3/TRP-Met cells.
Another data set relates to Chikungunya virus. In words: Antiviral activity against Chikungunya virus infected in Vero E6 cells assessed as inhibition of virus-induced cytopathic effect incubated for 72 hrs by CellTiter Glo luminescence assay. Conditions: Vero C1008, 72 h. The format is functional, organism-based. In general terms: Damage to the host cells serves as the signal in cytopathic effect assays.

Data set [2] relates to Bacillus subtilis. In words: Antibacterial activity against Bacillus subtilis assessed as zone of inhibition at 250 ug/ml by agar disc diffusion method. The format is functional. Conditions: read-out: IZ. In general terms: In agar diffusion tests the substance spreads into inoculated agar from a disc or well.
The subject of data set [3] is Pseudomonas aeruginosa. In words: Antibacterial activity against Pseudomonas aeruginosa assessed as zone of inhibition at 150 ug/ml by agar disc diffusion method. The settings on record: read-out: IZ. The format is functional.
Data set [4] concerns Escherichia coli. Put plainly: Antibacterial activity against Escherichia coli assessed as zone of inhibition at 200 ug/ml by agar disc diffusion method. The format is functional. The settings on record: read-out: IZ.
For data set [5], the system named is Escherichia coli. In words: Antibacterial activity against Escherichia coli assessed as zone of inhibition at 250 ug/ml by agar disc diffusion method. The data set is classed as functional. Conditions: read-out: IZ.
The subject of data set [6] is Staphylococcus aureus. In words: Antibacterial activity against Staphylococcus aureus assessed as zone of inhibition at 250 ug/ml by agar disc diffusion method. The format is functional. Conditions: read-out: IZ.
Data set [7] deals with Staphylococcus aureus. In words: Antibacterial activity against Staphylococcus aureus assessed as zone of inhibition at 150 ug/ml by agar disc diffusion method. The data set is classed as functional. The settings on record: read-out: IZ.
The subject of data set [8] is Bacillus subtilis. In words: Antibacterial activity against Bacillus subtilis assessed as zone of inhibition at 150 ug/ml by agar disc diffusion method. The format is functional. Conditions: read-out: IZ.
Data set [9] has as its system Pseudomonas aeruginosa. Put plainly: Antibacterial activity against Pseudomonas aeruginosa assessed as zone of inhibition at 250 ug/ml by agar disc diffusion method. Conditions: read-out: IZ. The format is functional.
The subject of data set [10] is Bacillus subtilis. In words: Antibacterial activity against Bacillus subtilis assessed as zone of inhibition at 200 ug/ml by agar disc diffusion method. The data set is classed as functional. Conditions: read-out: IZ.
Data set [11] deals with Escherichia coli. In words: Antibacterial activity against Escherichia coli assessed as zone of inhibition at 150 ug/ml by agar disc diffusion method. The format is functional. The settings on record: read-out: IZ.
For data set [12], the system named is Pseudomonas aeruginosa. In words: Antibacterial activity against Pseudomonas aeruginosa assessed as zone of inhibition at 200 ug/ml by agar disc diffusion method. The format is functional. The settings on record: read-out: IZ.
Data set [13] deals with Staphylococcus aureus. Put plainly: Antibacterial activity against Staphylococcus aureus assessed as zone of inhibition at 200 ug/ml by agar disc diffusion method. The data set is classed as functional. Conditions: read-out: IZ.
The target in another data set is hERG (KCNH2) (Homo sapiens, UniProt Q12809). In words: Inhibition of hERG potassium […] at 6.25 uM relative to control. The format is toxicity. A general note: hERG is a cardiac potassium channel; its block is linked to QT prolongation.
The subject of data set [14] is Escherichia coli. Put plainly: Antibacterial activity against Escherichia coli assessed as zone of inhibition at 10 ug/ml by agar well diffusion method. The format is functional. The settings on record: read-out: IZ.
The test system of data set [15] is Staphylococcus aureus. In words: Antibacterial activity against Staphylococcus aureus assessed as zone of inhibition at 10 ug/ml by agar well diffusion method. Conditions: read-out: IZ. The format is functional.
The test system of data set [16] is Escherichia coli. Put plainly: Antibacterial activity against Escherichia coli assessed as zone of inhibition at 35 ug/ml by agar well diffusion method. The data set is classed as functional. The settings on record: read-out: IZ.
Data set [17] deals with Escherichia coli. Put plainly: Antibacterial activity against Escherichia coli assessed as zone of inhibition at 25 ug/ml by agar well diffusion method. The settings on record: read-out: IZ. The format is functional.
Data set [18] deals with Staphylococcus aureus. Put plainly: Antibacterial activity against Staphylococcus aureus assessed as zone of inhibition at 35 ug/ml by agar well diffusion method. The data set is classed as functional. The settings on record: read-out: IZ.
Data set [19] relates to Staphylococcus aureus. In words: Antibacterial activity against Staphylococcus aureus assessed as zone of inhibition at 25 ug/ml by agar well diffusion method. The data set is classed as functional. Conditions: read-out: IZ.
The test system of data set [20] is Escherichia coli. In words: Antibacterial activity against Escherichia coli 209p assessed as reduction in bacterial growth by CLSI protocol based agar dilution method. The data set is classed as functional.
The subject of the next data set is Shigella flexneri. In words: Antibacterial activity against Shigella flexneri NIHJ assessed as reduction in bacterial growth by CLSI protocol based agar dilution method. The data set is classed as functional.
Data set [21] relates to Staphylococcus aureus. Put plainly: Antibacterial activity against Staphylococcus aureus assessed as reduction in bacterial growth by CLSI protocol based agar dilution method. The format is functional.
The test system of data set [22] is Pseudomonas aeruginosa. Put plainly: Antibacterial activity against Pseudomonas aeruginosa assessed as reduction in bacterial growth by CLSI protocol based agar dilution method. The format is functional.
For data set [23], the target named is Voltage-gated inwardly rectifying potassium channel KCNH2 (Homo sapiens, UniProt Q12809). Put plainly: Inhibition of hERG. The format is toxicity.
For another data set, the system named is Hepatitis C virus. Put plainly: Antiviral activity against Hepatitis C virus genotype 2a infected in human Huh-7 cells assessed as reduction in viral infection. The data set is classed as functional, organism-based, Hepacivirus hominis.

hERG (KCNH2), sequence (Q12809 whole entry, the tested form may be a part): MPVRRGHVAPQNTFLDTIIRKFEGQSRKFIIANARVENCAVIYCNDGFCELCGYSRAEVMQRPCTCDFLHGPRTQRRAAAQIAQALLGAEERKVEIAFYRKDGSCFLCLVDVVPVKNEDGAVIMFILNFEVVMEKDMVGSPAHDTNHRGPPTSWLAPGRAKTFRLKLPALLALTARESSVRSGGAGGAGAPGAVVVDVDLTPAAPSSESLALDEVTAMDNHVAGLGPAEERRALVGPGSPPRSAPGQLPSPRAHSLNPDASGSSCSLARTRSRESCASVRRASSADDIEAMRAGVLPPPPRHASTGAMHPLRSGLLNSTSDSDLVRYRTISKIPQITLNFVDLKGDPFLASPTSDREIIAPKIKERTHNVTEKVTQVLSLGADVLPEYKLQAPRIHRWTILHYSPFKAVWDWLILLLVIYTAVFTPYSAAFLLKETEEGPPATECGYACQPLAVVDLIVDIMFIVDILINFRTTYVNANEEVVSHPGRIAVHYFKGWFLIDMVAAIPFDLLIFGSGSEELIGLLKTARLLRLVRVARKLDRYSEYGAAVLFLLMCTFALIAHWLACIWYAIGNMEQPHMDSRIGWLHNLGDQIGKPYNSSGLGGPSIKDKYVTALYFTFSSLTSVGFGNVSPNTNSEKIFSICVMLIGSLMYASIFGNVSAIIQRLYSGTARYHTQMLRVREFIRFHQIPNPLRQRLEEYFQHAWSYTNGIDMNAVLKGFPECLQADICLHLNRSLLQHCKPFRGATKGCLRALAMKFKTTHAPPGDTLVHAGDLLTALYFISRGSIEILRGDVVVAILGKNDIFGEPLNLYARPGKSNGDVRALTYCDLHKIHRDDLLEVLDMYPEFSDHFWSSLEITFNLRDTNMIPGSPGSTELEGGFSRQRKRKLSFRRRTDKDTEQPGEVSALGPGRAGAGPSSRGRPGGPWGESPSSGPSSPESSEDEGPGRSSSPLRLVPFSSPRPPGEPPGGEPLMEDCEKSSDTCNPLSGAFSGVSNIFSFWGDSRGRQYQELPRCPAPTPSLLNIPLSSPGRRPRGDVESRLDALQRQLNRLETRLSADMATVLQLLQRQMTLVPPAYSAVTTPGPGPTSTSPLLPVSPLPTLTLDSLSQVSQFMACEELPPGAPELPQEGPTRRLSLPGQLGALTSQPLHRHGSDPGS
Voltage-gated inwardly rectifying potassium channel KCNH2, sequence (Q12809 whole entry): as the sequence (Q12809 whole entry, the tested form may be a part) above

As to `CCn1cnc2c3cccnc3n(-c3ccccc3)c(=O)c21`, the Activity in the data set on Rattus norvegicus is reported as 58.2%.

As for `Cn1cnc2c3cccnc3n(-c3ccccc3)c(=O)c21`, the Activity in the data set with Rattus norvegicus is reported as 40%.

One may read the IC50 as the concentration that inhibits the measured activity by half. Regarding `N[C@H]1CC[C@H](n2c(=O)n(Cc3ccc(Cl)c(Cl)c3)c3nc(Oc4ccc(C(=O)N5CCCCC5)cc4)c4cccnc4c32)CC1`, the IC50 in data set [1] was less than 1 µM.

In general, EC50 refers to the concentration giving half of the maximal effect. For `FC(F)(F)c1cc(C(F)(F)F)c2ccc3nc(-c4nnco4)cn3c2n1`, the concentration giving a half-maximal response (EC50) in the data set with Chikungunya virus was 0.203 µM.

Regarding `O=[N+]([O-])c1cccc(-c2cc3cccnc3n3c2nc2ccc(O)cc23)c1`, the zone of inhibition at 250 µg/mL in the data set on Bacillus subtilis [2] was 23 mm; in the data set with Escherichia coli [5] it was 22 mm; with Staphylococcus aureus [6] it was 22 mm; in the data set on Pseudomonas aeruginosa [9], 22 mm. In addition, the zone of inhibition at 150 µg/mL in the data set with Pseudomonas aeruginosa [3] came out at 17 mm; with Staphylococcus aureus [7] it was 18 mm; in the data set on Bacillus subtilis [8] it was 16 mm; in the data set on Escherichia coli [11], 17 mm. Further, the zone of inhibition at 200 µg/mL in the data set on Escherichia coli [4] was 22 mm; in the data set on Bacillus subtilis [10], 19 mm; in the data set with Pseudomonas aeruginosa [12], 20 mm; in the data set on Staphylococcus aureus [13] it was 20 mm.

One may read the inhibition as the relative decrease from the control value, in per cent. With `Cc1cc(C)c2ccc3nc(-c4ccc(F)cc4)c(CN4CCCCC4)n3c2n1`, the inhibition at 6.25 µM against hERG (KCNH2) came out at 11%.

As for `O=[N+]([O-])c1cccc(-c2cnc3c(-c4ccc(F)cc4Cl)cc4cccnc4n23)c1`, the zone of inhibition at 10 µg/mL in the data set with Escherichia coli [14] and in the data set with Staphylococcus aureus [15] was 6 mm each time. For the same molecule, the values for the zone of inhibition at 35 µg/mL in the data set with Escherichia coli [16] and in the data set on Staphylococcus aureus [18] were 25 mm and 24 mm, respectively. In addition, the zone of inhibition at 25 µg/mL in the data set on Escherichia coli [17] and in the data set with Staphylococcus aureus [19] was 16 mm throughout.

What is called MIC is the least concentration at which growth counts as inhibited. In the case of `CCn1cnc2cc3c(=O)c(C(=O)O)cn(CC)c3nc21`, the MIC in the data set on Escherichia coli [20] is 3.13 µg/mL (≈ 10.9 µM); in the data set with Shigella flexneri, 3.13 µg/mL (≈ 10.9 µM); in the data set on Staphylococcus aureus [21], 25 µg/mL (≈ 87.3 µM); in the data set with Pseudomonas aeruginosa [22] it was greater than 100 µg/mL.

Consider `COc1ccc(-c2nc3ccc4c(C)cc(C)nc4n3c2CN2CCC(C)CC2)cc1`, for which the IC50 in [23] amounted to 1.12 µM.

As to `Cc1cccc(-c2cnc3ccc4c(C(F)(F)F)cc(C(F)(F)F)nc4n23)c1`, in the data set with Hepatitis C virus, the EC50 amounted to 2.6 µM.

For `Cc1ccccc1-c1cnc2ccc3c(C(F)(F)F)cc(C(F)(F)F)nc3n12`, the 50% effective concentration (EC50) with Hepatitis C virus was determined as 2.8 µM.

Regarding `FC(F)(F)c1cc(C(F)(F)F)c2ccc3ncc(-c4cncnc4)n3c2n1`, in the data set with Hepatitis C virus, the EC50 was greater than 20 µM.

For the molecule `Fc1ccc(-c2cc3cccnc3n3c(-c4ccc(Cl)cc4)cnc23)c(Cl)c1`, the zone of inhibition at 10 µg/mL in the data set on Escherichia coli [14] and in the data set on Staphylococcus aureus [15] was 6 mm in each case. In addition, the values for the zone of inhibition at 35 µg/mL with Escherichia coli [16] and in the data set with Staphylococcus aureus [18] were 25 mm and 24 mm, respectively. The zone of inhibition at 25 µg/mL in the data set on Escherichia coli [17] and in the data set on Staphylococcus aureus [19] was 16 mm throughout.
